Source: patent publication US10512656B2, “Compositions and methods for the treatment of lysosomal storage disorders and disorders characterized by lysosomal dysfunction” (Baylor College of Medicine, priority 2016, dated 2019)

Assays:
TFE3 = TFE3 nuclear translocation in HeLa cells; format: cell-based, human; settings: HeLa cells transfected with TFE3-3×Flag
From the text: FIG. 23. Pharmacological inhibition of AKT induces nuclear translocation of TFE3 and MITF. HeLa cells were transiently transfected with TFE3-3×Flag (a) and MITF-3×Flag (b) and analyzed by confocal microscopy. Scale bar is 10 μm.

TFEB = TFEB nuclear translocation in HeLa cells with WT or constitutively active mTOR; format: cell-based, human; settings: cells transfected with WT mTOR or mTOR^E2419K, trehalose 100 mM 24 h
Description: (b) Quantification of TFEB subcellular localization (C, cytoplasmic; N, nuclear) after 24 h of trehalose treatment (Tre) or in untreated cells (UT). Scale bars in a, b is 40 μm. (c) Immunoblot analyses show expression levels of substrates downstream of mTORC1. Wild-type (WT) and TSC2 null MEF cells were treated with trehalose (Tre; 100 mM) for 24 h or left untreated. As controls, cells were treated with Torin 1 (300 nM) or rapamycin (300 nM) for 2 h before extracting the lysates. Phospho- and total S6K1 (P-S6K1 and T-S6K1), phospho- and total S6 (P-S6 and T-S6) and phospho- and total 4E-BP1 (P-4E-BP1 and T-4E-BP1) were detected as readouts of mTORC1 activity. […] (f) HeLa cells co-transfected with TFEB-3×FLAG and mTOR or (g) TFEB-3×FLAG and constitutively active mTOR (CA-mTOR, […]) constructs were treated with trehalose (100 mM for 24 h) or left untreated before immunofluorescent labelling of TFEB (red) and mTOR (green) with FLAG and mTOR antibodies, respectively. Scale bar, 10 μm (d-g). Data represent means±s.e.m.
For immunofluorescence assay, cells were grown on coverslips in 24-well plates. After the treatment, cells were washed with PBS and fixed with methanol for 10 min. Cells were then blocked with blocking reagent (0.1% saponin, 10% bovine serum in PBS) for 1 h and incubated with appropriate primary antibody(s) (1:100) for 3 h at room temperature. […]

lysosomal genes = test: Real-time qPCR in primary cortical neuron cultures; format: cell-based, mouse; settings: cortical neurons from WT and Cln3^Δex7-8 embryos, 100 mM trehalose
Description: Cortical and Hippocampal neurons were prepared from E17.5 and postnatal day 0-1 mice and plated on poly-D-lysine coated six-well plates (BD Biosciences) in Neurobasal medium supplemented with GlutaMAX-I (Invitrogen), B-27 and 1% FBS. At days in vitro (DIV) 4, neurons were treated with 100 mM trehalose. At DIV 8, neurons were collected and RNA extraction was performed.
Total RNA was extracted from the control and JNCL fibroblasts and from WT and Cln3^Δex7-8 cortical neuron cultures using the RNEasy kit (Qiagen) according to the manufacturer's instructions. Half of the mouse brain was processed for the RNA extraction and one microgram was used for complementary DNA synthesis by QuantiTect Reverse Transcription kit (Qiagen). The primers for PCR with reverse transcription reactions are listed in Table St Quantitative real-time PCR was performed by using iQ SYBR Green Supermix on the CFX96 Touch Real-Time Detection System (Bio-Rad Laboratories). Samples were heated for 3 min at 95° C. and amplified in 39 cycles for 11 s at 95° C., 45 s at 60° C. with last cycle of 10 s at 95° C., 5 s at 65° C. and 5 s at 95° C. Analyses were conducted using CFX manager software (Bio-Rad) and the threshold cycle (CT) was extracted from the PCR amplification plot. Relative gene expression was determined using the ΔΔCT method, normalizing to GAPDH (for human genes) and cyclophilin (for mouse genes). […]

| SMILES | TFE3 nuclear translocation (TFE3) | TFEB nuclear translocation (TFEB) | expression of lysosomal genes (lysosomal genes) |
| --- | --- | --- | --- |
| Cl.NC1(c2ccc(-c3nc4ccn5c(=O)[nH]nc5c4cc3-c3ccccc3)cc2)CCC1 [MK2206, 8-[4-(1-aminocyclobutyl)phenyl]-9-phenyl-1,2,4-triazolo[3,4-f][1,6]naphthyridin-3(2H)-one] | promoted nuclear translocation of these two factors | – | – |
| OC[C@H]1O[C@H](O[C@H]2O[C@H](CO)[C@@H](O)[C@H](O)[C@H]2O)[C@H](O)[C@@H](O)[C@@H]1O [trehalose, a-D-glucopyranosyl a-D-glucopyranoside] | – | induces nuclear translocation of TFEB | transcriptional activation of lysosomal genes |
